Laboratory results published in patent US20230158042A1, “COMBINATION CANCER THERAPY WITH PENTAAZA MACROCYCLIC RING COMPLEX AND HORMONE THERAPY AGENT” (Galera Labs, LLC, priority 2020, published 2023).

Tests used:
[1] = test system: T47D-HTR cells; assay: Clonogenic cell survival, hydroxy-Tam-resistant T47D cells with GC4419; format: cell-based, human; conditions: 5 µM GC4419 for 5 days; 1 µM hydroxy-Tam
Procedure: (§1) Clonogenic cell survival assay. For the clonogenic survival analysis, exponentially growing cells were replated using appropriate dilutions, and clonogenic survival was evaluated after 14 days in regular growth medium. Cells were stained with crystal violet, and colonies of >50 cells were counted and utilized to calculate clonogenic survival^46.
To test parameters indicative of oxidative stress, a clonogenic assay with hydroxy-Tam and MnPAM dismutase mimetic treatments was performed. Cells were plated at a density of 50,000 cells per 60-mm dish and treated with 1 µM hydroxy-Tam (Sigma) and 5 µM GC4419 (Galera Therapeutics) for a total of 120 h. This protocol was repeated with a fresh medium change every 24 h for 5 days. On day 6, the cells were trypsinized, counted, and replated in control medium using appropriate dilutions, and clonogenic survival was evaluated.

[2] = test system: MCF7-HTR cells; assay: Ki-67 staining in MCF7-HTR cells; format: cell-based, human; conditions: 5 µM GC4419 for 5 days
Text: With respect to FIG. 16a, the data from FIG. 7i, where MCF7-HTR cells were stained for Ki-67, as well as DAPI, were counted with ImageJ and quantified for average Ki-67 intensity as shown in the bar graph. With respect to FIGS. 16b and 16c, T47D and T47D-HTR cells were stained for Ki-67 as well as DAPI, and particles in the nucleus were counted with ImageJ and quantified for average Ki-67 intensity as shown in the bar graph. In FIGS. 16d and 16e, MCF7-HTR cells, and in FIGS. 16f and 16g, T47D-HTR cells, were treated with 5 µM GC4419 and/or 1 µM 4-hydroxy-Tam for 5 days, and then stained for Ki-67 as well as DAPI. Quantifications of average Ki-67 intensity are shown in the bar graphs. All experiments were done in triplicate. Error bars represent ± 1 SEM. ***p < 0.001. Representative images are shown.
Cells seeded on glass coverslips were fixed in 4% paraformaldehyde and then blocked with 1% BSA and 10% normal goat serum in 1x PBS. Cells were incubated with anti-Ki-67 (c-bioscience) antibody in 1x PBS followed by incubation with goat anti-rabbit IgG conjugated with Alexa Fluor 647 (Invitrogen) in 1x PBS with 5% goat serum. Cells were washed in 1x PBS, mounted, and imaged with a fluorescence microscope. Fluorescence images were captured using a laser scanning confocal microscope (Nikon A1 R). The paired images in all the figures were collected at the same gain and offset settings. […]

[3] = test system: T47D-MnSOD^K68Q cells; assay: Ki-67 staining in T47D-MnSOD^K68Q cells; format: cell-based, human; conditions: 5 µM GC4419 for 5 days
Procedure: MCF7-MnSOD^K68Q cells (in FIGS. 17a and 17b) and T47D-MnSOD^K68Q cells (in FIGS. 17c and 17d) were treated with 5 µM GC4419 and/or 1 µM 4-hydroxy-Tam for 5 days, and then stained for Ki-67 as well as DAPI. Quantifications of average Ki-67 intensity are shown in the bar graphs. In FIG. 17e, MCF7 and MCF7-HTR cells were implanted into both hind limbs of nude mice and tumor volumes were measured every 3 days for 6 weeks and the number of tumors that successfully implanted versus the total number of mice infected with MCF7 and MCF7-HTR as well as the average tumor weight and tumor size are shown. Representative images are shown. All experiments were done in triplicate. Error bars represent ± 1 SEM. ***p < 0.001.
Cells seeded on glass coverslips were fixed in 4% paraformaldehyde and then blocked with 1% BSA and 10% normal goat serum in 1x PBS. Cells were incubated with anti-Ki-67 (c-bioscience) antibody in 1x PBS followed by incubation with goat anti-rabbit IgG conjugated with Alexa Fluor 647 (Invitrogen) in 1x PBS with 5% goat serum. Cells were washed in 1x PBS, mounted, and imaged with a fluorescence microscope. Fluorescence images were captured using a laser scanning confocal microscope (Nikon A1 R). The paired images in all the figures were collected at the same gain and offset settings. Post-collection processing was applied uniformly to all paired images.

[4] = test system: LNCaP-ENZR cells; assay: Clonogenic cell survival in LNCaP-ENZR cells; format: cell-based; conditions: GC4419 20 µM for 5 days, in the presence of ENZ
Procedure: (§2) FIGS. 21a-21b are a chart and graph showing that pharmacologically mimicking the activity of deacetylated lysine 68 MnSOD with a manganese pentaazamacrocyclic dismutase mimetic both inhibited the growth of LNCaP-ENZR tumors and reversed the enzalutamide resistance in LNCaP-ENZR / LNCaP—MnSOD^K68Q cells and tumors. In FIG. 21a, clonogenic cell survival experiments were performed in LNCaP-ENZR (left two bars) and LNCaP—MnSOD^K68Q (right two bars) treated with ENZ, with or without GC4419 (20 µM) for 5 days. […] Tumor volumes were measured three times a week for 46 days. For each group n=10. Error bars ± 1 SEM. All experiments done in triplicate. **p < 0.01.

[5] = test system: LNCaP-MnSOD^K68Q cells; assay: Clonogenic cell survival in LNCaP-MnSOD^K68Q cells; format: cell-based; conditions: GC4419 20 µM for 5 days, treated with ENZ
Procedure: In FIG. 20a, clonogenic cell survival experiments were done in LNCaP-ENZR cells infected with lenti-MnSOD^K68R or lenti-MnSOD^K68Q, in the presence of ENZ (10 µM). In FIG. 20b, clonogenic survival assays were done in LNCaP cells infected with lenti-MnSOD^WT, lenti-MnSOD^K68R, and lenti-MnSOD^K68Q, and selected with neomycin, and placed in 10 µM of ENZ for 72 hr. Error bars ± 1 SEM. Experiments were done in triplicate. **p < 0.01.
as §2

[6] = test system: MCF7-MnSOD^K68Q cells; assay: Clonogenic cell survival in MCF7-MnSOD^K68Q cells; format: cell-based, human; conditions: GC4419 10 µM alone
Procedure: FIGS. 25a-25b show clonogenic cell survival studies in MCF7-MnSOD^K68Q cells exposed to either: Fulv at 100 nM (in FIG. 25a); or Palb at 0.5 µM (in FIG. 25b) using standard methods. […] Error bars are ± 1 SEM. Experiments in triplicate. *** p < 0.001.
as §1

[7] = test system: MCF7-Cispl-R cells; assay: SOX2 and OCT4 levels in cisplatin-resistant MCF7 cells; format: cell-based, human; conditions: data not shown
[8] = test system: MCF-7-MnSOD^K68Q cells; assay: Clonogenic cell survival after 5 Gy ionizing radiation in MCF-7-MnSOD^K68Q cells; format: cell-based, human; conditions: 5 µM GC4419 for 5 days
Procedure: FIGS. 30a-30b are plots showing that mimicking acetylation of MnSOD—K68 with MnSOD^K68Q expression induces ionizing radiation resistance (IRR) in breast cancer cells, and that pharmacologically mimicking the activity of deacetylated lysine 68 MnSOD with a manganese pentaazamacrocyclic dismutase mimetic reverses this IRR. […] All experiments were done in triplicate. Error bars represent ± 1 SEM. ***p < 0.001. Data were analyzed by a t-test.

[9] = test system: rat model; conditions: cited from earlier work
[10] = test system: head-and-neck cancer patients; conditions: patients undergoing chemoradiation therapy, Phase 1 trial; cited from earlier work
[11] = test system: mice lacking Sirt3; conditions: IP injection with 2 mg/kg 30 minutes before IR; cited from earlier work

## [Cl][Mn][Cl].c1cc2nc(c1)CN[C@H]1CCCC[C@@H]1NCCN[C@H]1CCCC[C@@H]1NC2 [GC4419]
[1]
  hydroxy-Tam resistance (clonogenic cell survival): became sensitive to hydroxy-Tam
[2]
  Ki-67 IHC staining: decreased Ki-67 IHC staining
[3]
  Ki-67 IHC staining: reversed the increase in Ki-67 IHC staining
[4]
  tumor cell survival (clonogenic): significant decrease in tumor cell survival in the presence of ENZ
[5]
  ENZR phenotype (clonogenic cell survival): converted to a sensitive phenotype
[6]
  cell growth (clonogenic): inhibited the growth of MnSOD^K68Q breast cancer cells
[7]
  SOX2 and OCT4 levels: decreased SOX2 and OCT4 levels
[8]
  ionizing radiation resistance (IRR) phenotype, clonogenic cell survival: reversed the IRR phenotype
[9]
  VEGFr inhibitor-induced pulmonary disease: attenuate VEGFr inhibitor-induced pulmonary disease
[10]
  oral mucositis: reduce oral mucositis
[11]
  liver damage: attenuated liver damage
